# Columns and labels:
# [1] = target: T1, Ephrin type-B receptor 2 (Homo sapiens) (UniProt P29323); assay: Selectivity interaction (KinomeScan (DiscoverX)) EUB0001079a EPHB2; settings: at 1 µM
# T1 sequence (whole entry): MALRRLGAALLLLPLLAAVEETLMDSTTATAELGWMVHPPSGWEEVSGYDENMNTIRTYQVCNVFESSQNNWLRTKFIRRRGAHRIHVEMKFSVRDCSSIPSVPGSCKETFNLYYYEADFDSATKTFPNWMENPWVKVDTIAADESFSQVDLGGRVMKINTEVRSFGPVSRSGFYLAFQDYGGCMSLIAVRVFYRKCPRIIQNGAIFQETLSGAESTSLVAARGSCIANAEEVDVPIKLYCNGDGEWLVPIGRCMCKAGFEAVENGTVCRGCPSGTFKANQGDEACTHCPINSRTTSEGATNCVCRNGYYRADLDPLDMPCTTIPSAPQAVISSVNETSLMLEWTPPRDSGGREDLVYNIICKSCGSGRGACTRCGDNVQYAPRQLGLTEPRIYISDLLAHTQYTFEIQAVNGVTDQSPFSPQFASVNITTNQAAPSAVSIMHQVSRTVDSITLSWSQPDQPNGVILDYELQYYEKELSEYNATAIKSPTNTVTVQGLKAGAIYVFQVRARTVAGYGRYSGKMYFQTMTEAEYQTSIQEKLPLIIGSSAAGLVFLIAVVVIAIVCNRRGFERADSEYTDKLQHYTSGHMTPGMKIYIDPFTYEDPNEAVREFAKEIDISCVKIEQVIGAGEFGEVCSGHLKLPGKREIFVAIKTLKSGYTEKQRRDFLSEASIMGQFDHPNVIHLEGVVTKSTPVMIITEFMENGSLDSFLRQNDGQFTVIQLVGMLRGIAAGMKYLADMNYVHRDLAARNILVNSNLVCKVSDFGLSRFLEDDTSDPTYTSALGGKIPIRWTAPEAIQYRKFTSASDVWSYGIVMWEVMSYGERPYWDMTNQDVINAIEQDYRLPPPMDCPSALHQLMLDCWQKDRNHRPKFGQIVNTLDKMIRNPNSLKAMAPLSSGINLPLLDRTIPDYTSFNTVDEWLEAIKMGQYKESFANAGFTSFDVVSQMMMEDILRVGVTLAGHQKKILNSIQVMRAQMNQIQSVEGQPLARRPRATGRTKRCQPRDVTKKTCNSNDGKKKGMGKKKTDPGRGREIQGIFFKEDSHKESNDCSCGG
# [2] = tested on: T2, Receptor-type tyrosine-protein kinase FLT3 (Homo sapiens), P36888 [D835Y]; settings: at 10 µM
# T2 sequence (whole entry): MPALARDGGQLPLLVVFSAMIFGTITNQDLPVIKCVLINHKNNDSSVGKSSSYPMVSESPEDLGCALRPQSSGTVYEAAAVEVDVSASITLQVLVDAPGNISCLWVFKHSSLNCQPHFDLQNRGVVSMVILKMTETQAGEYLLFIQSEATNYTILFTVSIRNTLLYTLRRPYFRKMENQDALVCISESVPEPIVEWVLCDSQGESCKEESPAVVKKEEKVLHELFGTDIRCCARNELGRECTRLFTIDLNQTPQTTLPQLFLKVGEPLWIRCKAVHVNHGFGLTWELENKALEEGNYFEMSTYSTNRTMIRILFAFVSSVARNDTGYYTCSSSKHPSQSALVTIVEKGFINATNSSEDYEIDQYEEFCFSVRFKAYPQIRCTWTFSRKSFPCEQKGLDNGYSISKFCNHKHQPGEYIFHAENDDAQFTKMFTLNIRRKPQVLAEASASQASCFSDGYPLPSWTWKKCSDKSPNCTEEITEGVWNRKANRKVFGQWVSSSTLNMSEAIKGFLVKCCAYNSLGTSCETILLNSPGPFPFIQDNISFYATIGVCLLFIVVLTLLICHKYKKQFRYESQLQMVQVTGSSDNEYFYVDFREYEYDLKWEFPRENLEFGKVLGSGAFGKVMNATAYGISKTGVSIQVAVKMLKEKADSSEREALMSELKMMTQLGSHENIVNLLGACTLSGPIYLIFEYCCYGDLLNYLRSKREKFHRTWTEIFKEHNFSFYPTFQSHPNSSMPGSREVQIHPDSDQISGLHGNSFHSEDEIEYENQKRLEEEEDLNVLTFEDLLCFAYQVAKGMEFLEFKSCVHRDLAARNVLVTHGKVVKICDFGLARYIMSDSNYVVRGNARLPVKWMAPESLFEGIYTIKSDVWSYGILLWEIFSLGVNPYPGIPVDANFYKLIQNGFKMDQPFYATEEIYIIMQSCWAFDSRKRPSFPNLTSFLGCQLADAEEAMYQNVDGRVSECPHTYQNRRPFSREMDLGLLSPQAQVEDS
# [3] = target: Serine/threonine-protein kinase MARK2 (Homo sapiens) (UniProt Q7KZI7); settings: at 10 µM
# [4] = target: Serine/threonine-protein kinase PLK2 (Homo sapiens, UniProt Q9NYY3); assay: Selectivity interaction (KinomeScan (DiscoverX)) EUB0001049a PLK2; settings: at 1 µM
# [5] = target: Serine/threonine-protein kinase 26 (Homo sapiens, UniProt Q9P289); assay: Selectivity interaction (KinomeScan (DiscoverX)) EUB0001868a STK26; settings: at 1 µM
# [6] = target: Serine/threonine-protein kinase N2 (Homo sapiens, UniProt Q16513); assay: Selectivity interaction (Upstate Kinase Profiler service (Millipore)) EUB0000056c PKN2; settings: at 1 µM
# [7] = target: Phosphatidylinositol 4,5-bisphosphate 3-kinase catalytic subunit alpha isoform (Homo sapiens) (UniProt P42336); assay: Selectivity interaction (Kinase panel (Eurofins)) EUB0001564a PIK3CA; settings: at 1 µM
# [8] = target: Vascular endothelial growth factor receptor 2 (Homo sapiens, UniProt P35968); assay: Selectivity interaction (CEREP Wide Ligand Profile screen (panel of receptors, ion channels, and transporters)) EUB0001542aTs KDR
# [9] = target: Insulin receptor-related protein (Homo sapiens) (UniProt P14616); assay: Selectivity interaction (SelectScreen profiling (Invitrogen)) EUB0000607a INSRR; settings: at 2 µM
# [10] = target: Non-receptor tyrosine-protein kinase TYK2 (Homo sapiens, UniProt P29597); assay: Selectivity interaction (KinomeScan (DiscoverX)) EUB0000618a TYK2; settings: at 10 µM
# [11] = target: RAF proto-oncogene serine/threonine-protein kinase (Homo sapiens) (UniProt P04049); assay: Selectivity interaction (Kinase panel (Invitrogen)) EUB0000639a RAF1; settings: at 200 nM
# [12] = target: Serine/threonine-protein kinase SIK2 (Homo sapiens) (UniProt Q9H0K1); assay: Selectivity interaction (Ambit KINOMEscan and KiNATiv profiling in Jurkat cells) EUB0000090b SIK2; assay type: cell-based; settings: at 1 µM
# Sequence of RAF proto-oncogene serine/threonine-protein kinase (Homo sapiens) (P04049 whole entry): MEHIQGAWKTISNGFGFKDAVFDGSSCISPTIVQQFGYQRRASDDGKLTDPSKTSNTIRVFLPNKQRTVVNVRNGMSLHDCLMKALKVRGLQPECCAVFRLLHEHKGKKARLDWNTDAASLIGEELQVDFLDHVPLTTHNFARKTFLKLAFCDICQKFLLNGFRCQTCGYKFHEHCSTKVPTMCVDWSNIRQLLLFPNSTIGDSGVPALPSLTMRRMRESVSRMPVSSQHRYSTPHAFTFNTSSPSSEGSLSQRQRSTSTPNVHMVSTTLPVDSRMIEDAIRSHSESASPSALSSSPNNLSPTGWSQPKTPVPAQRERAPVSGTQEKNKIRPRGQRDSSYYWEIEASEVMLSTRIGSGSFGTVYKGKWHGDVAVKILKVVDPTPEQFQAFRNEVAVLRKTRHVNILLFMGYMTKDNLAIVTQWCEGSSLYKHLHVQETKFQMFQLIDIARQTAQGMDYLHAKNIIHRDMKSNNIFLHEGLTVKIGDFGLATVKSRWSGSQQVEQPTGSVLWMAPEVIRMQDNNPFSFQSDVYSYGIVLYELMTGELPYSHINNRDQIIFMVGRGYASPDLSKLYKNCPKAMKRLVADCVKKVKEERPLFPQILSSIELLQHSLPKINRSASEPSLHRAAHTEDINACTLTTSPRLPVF
# Sequence of Phosphatidylinositol 4,5-bisphosphate 3-kinase catalytic subunit alpha isoform (Homo sapiens) (P42336 whole entry, canonical isoform): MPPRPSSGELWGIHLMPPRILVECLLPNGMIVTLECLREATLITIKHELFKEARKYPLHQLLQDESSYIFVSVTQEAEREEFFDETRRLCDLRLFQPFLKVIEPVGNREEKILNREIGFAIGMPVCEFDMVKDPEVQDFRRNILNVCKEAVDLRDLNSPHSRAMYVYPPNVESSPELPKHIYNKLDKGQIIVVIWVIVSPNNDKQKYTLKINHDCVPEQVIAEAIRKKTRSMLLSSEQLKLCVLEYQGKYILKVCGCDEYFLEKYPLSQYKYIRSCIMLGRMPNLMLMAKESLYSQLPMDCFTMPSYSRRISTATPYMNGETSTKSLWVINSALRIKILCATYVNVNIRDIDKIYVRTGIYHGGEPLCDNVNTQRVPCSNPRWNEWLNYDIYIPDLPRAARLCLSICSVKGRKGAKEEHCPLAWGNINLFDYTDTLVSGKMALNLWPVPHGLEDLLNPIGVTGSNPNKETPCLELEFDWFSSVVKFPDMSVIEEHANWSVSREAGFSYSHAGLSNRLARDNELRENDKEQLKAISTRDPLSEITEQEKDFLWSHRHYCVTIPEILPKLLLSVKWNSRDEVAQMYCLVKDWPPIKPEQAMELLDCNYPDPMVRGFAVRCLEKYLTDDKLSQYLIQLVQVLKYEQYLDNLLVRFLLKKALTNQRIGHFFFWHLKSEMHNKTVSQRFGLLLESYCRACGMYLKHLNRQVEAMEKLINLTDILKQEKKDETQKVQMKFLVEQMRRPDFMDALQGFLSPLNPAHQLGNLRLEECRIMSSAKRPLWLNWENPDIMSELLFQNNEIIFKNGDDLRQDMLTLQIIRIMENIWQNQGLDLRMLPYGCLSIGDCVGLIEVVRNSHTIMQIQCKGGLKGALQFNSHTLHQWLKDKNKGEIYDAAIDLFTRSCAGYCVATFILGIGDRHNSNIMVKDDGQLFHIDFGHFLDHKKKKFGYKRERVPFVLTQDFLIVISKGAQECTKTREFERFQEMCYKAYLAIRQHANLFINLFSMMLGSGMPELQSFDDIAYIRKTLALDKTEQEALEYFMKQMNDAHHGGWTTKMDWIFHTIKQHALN
# Sequence of Insulin receptor-related protein (Homo sapiens) (P14616 27-742 limits assumed): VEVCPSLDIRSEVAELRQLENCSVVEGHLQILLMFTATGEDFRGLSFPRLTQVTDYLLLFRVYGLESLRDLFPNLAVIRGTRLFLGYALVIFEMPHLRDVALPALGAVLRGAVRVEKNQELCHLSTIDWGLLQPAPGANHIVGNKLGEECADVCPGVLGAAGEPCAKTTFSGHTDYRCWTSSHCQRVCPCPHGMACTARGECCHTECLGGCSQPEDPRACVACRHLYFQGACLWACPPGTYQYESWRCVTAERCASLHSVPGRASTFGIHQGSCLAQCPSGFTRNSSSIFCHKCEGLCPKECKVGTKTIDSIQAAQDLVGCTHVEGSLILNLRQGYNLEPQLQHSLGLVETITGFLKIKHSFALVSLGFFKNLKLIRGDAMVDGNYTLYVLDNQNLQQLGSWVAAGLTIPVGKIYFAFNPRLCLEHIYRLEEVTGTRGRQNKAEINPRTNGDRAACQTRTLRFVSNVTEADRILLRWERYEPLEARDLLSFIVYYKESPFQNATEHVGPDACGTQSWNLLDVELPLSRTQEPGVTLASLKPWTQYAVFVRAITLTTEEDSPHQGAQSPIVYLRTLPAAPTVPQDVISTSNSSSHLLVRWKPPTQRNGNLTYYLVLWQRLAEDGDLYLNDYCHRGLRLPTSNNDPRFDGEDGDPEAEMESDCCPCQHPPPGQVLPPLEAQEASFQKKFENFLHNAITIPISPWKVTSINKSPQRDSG
# Sequence of Insulin receptor-related protein (Homo sapiens) (P14616 747-1297 limits assumed): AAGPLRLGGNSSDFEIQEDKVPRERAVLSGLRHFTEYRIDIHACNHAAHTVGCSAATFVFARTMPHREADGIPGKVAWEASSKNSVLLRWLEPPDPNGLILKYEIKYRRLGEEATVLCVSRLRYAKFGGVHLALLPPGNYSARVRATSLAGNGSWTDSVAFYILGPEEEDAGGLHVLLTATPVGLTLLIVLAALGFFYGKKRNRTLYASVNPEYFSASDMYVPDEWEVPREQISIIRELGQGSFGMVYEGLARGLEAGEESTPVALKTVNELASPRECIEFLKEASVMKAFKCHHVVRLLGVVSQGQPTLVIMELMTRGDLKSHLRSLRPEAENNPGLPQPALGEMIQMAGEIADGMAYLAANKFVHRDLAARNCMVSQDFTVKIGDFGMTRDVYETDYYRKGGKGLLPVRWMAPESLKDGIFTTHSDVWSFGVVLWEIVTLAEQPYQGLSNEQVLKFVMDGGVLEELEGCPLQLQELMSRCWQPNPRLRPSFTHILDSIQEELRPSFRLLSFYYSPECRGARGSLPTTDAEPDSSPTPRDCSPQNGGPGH
# Sequence of Serine/threonine-protein kinase MARK2 (Homo sapiens) (Q7KZI7 whole entry): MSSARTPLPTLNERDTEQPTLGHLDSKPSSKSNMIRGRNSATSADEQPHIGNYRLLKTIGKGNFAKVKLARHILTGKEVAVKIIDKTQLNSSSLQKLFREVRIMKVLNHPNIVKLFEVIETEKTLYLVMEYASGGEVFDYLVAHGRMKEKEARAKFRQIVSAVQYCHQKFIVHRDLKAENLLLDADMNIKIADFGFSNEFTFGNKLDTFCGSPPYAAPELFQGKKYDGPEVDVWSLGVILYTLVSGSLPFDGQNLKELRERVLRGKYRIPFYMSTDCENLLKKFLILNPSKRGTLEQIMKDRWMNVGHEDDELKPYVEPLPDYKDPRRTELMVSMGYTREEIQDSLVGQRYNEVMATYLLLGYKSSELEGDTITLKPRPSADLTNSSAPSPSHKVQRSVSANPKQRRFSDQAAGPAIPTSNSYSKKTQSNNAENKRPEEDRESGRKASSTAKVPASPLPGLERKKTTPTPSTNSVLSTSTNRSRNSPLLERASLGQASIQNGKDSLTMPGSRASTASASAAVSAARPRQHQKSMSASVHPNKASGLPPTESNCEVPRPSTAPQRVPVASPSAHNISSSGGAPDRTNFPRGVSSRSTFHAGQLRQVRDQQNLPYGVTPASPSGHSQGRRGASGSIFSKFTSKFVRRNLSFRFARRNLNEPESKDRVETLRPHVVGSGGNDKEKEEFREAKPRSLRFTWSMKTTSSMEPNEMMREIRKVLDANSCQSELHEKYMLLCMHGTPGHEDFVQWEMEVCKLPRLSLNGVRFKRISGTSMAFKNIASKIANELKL
# Sequence of Non-receptor tyrosine-protein kinase TYK2 (P29597 whole entry): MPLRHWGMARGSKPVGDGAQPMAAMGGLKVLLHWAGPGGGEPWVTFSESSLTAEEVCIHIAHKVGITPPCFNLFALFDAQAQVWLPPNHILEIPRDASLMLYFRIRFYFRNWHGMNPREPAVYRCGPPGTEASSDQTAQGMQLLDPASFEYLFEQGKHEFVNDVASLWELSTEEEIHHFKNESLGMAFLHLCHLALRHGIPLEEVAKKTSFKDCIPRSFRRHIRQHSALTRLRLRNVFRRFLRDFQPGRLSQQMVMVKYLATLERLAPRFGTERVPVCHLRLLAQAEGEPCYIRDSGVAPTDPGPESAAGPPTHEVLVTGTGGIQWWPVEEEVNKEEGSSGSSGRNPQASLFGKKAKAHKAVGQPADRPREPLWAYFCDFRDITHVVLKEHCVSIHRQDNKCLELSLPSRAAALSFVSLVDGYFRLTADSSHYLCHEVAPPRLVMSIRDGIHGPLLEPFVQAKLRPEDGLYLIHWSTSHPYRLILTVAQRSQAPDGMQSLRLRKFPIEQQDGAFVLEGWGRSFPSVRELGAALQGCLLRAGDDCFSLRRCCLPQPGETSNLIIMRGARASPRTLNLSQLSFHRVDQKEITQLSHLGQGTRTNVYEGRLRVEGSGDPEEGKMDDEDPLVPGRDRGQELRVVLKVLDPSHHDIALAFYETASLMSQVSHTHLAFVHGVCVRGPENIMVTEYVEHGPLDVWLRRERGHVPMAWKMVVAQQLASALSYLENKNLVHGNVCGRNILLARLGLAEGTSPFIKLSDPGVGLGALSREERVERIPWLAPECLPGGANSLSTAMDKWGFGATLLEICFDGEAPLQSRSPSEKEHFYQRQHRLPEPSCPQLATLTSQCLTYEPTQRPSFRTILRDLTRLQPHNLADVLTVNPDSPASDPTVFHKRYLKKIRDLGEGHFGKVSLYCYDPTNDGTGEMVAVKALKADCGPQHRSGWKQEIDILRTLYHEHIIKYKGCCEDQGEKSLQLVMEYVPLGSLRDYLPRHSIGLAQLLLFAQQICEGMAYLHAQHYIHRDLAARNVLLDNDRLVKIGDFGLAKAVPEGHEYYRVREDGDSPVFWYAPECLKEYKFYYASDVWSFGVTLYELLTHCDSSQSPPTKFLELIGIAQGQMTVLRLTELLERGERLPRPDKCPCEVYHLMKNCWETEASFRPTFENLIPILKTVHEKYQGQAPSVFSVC
structure (smiles),measurement,setting,value
Nc1cnc(N2CCc3cc(S(=O)(=O)Nc4c(F)cc(Cl)cc4F)cc(N4CCCC4=O)c32)nc1 [TP-020n],% of control,[1],87%
Cc1cc([C@@H](C)Nc2ccccc2C(=O)O)c2nc(N3CCOCC3)cc(=O)n2c1 [AZD-6482],% of control,[2],54%
same,% of control,[3],90%
COc1cc(Nc2nc(C)cc(-c3cnn4nc(OC)ccc34)n2)cc(C(F)(F)F)c1,% of control,[4],77%
Cc1cc(-c2ccnc(Nc3cnn(C)c3)n2)ccc1CNC(=O)N1CC(OC(C)C)C1,% of control,[5],42%
Cc1ccc(-c2ccc3c(ccc4sc5c(c43)NC[C@@H](C)NC5=O)n2)cn1,% of inhibition,[6],-8%
CC[C@@H](Nc1c(C#N)c(-c2ccc(-c3cccc(C)c3F)cc2)nc2cnccc12)C(=O)O [BAY-091],% of inhibition,[7],30.9%
Cn1cc(Nc2nccc(N3CC4CCC(C3)N4C(=O)[C@@H]3CC3(F)F)n2)cn1,IC50,[8],1600 nM
CNC(=O)Nc1ccc(-c2nc(N3CC4CCC(C3)O4)c3cnn(C4CCC5(CC4)OCCO5)c3n2)cc1,% of inhibition,[9],6%
O[C@H]1CC[C@H](Nc2ncc3nc(Nc4c(F)cc(F)cc4F)n([C@H]4CCOC4)c3n2)CC1,% of control,[10],61%
CC[C@@H]1[C@H](F)C(=O)N[C@@H]1COc1nccc2cc(C(N)=O)c(OC)cc12 [ZIMLOVISERTIB],% of inhibition,[11],10.1%
CN(C)C/C=C/C(=O)Nc1ccc(C(=O)N2CCCC(Nc3ncc(Cl)c(-c4c[nH]c5ccccc45)n3)C2)cc1 (configuration not stated),% of control,[12],93%

# Reference: ChEMBL document CHEMBL5465560, “Selectivity Literature for EUbOPEN Chemogenomic Library” (2024)
